# Data published in patent US10160762B2, “6-alkyl dihydropyrazolopyrimidinone compounds as PDE2 inhibitors” (Merck Sharp & Dohme Corp., priority 2015, dated 2018).
# Biological target: T1, human PDE2A1 (Homo sapiens, UniProt O00408)
# T1 construct: GST; purchased BPS Bioscience (San Diego, Calif.) 60020; host or cells: insect cells
# Test: IMAP FP PDE assay, human PDE2A1
# Assay type: biochemical
# Details: Lab B; read-out: Human PDE2 Ki (nM) Lab B
# Summary of the method: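 GST-tagged human PDE2A1 from insect cells; substrate 50 nM FAM-cAMP containing 1000 nM cGMP in Tris pH 7.2/MgCl2/DTT buffer, enzyme giving 20% conversion. 60 min at room temperature, IMAP binding reagent, fluorescence polarization read. Apparent Ki from FP readings using apparent KM 10,000 nM; ten-point 3-fold titrations.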
# T1 sequence (O00408 1-920 isoform O00408-2): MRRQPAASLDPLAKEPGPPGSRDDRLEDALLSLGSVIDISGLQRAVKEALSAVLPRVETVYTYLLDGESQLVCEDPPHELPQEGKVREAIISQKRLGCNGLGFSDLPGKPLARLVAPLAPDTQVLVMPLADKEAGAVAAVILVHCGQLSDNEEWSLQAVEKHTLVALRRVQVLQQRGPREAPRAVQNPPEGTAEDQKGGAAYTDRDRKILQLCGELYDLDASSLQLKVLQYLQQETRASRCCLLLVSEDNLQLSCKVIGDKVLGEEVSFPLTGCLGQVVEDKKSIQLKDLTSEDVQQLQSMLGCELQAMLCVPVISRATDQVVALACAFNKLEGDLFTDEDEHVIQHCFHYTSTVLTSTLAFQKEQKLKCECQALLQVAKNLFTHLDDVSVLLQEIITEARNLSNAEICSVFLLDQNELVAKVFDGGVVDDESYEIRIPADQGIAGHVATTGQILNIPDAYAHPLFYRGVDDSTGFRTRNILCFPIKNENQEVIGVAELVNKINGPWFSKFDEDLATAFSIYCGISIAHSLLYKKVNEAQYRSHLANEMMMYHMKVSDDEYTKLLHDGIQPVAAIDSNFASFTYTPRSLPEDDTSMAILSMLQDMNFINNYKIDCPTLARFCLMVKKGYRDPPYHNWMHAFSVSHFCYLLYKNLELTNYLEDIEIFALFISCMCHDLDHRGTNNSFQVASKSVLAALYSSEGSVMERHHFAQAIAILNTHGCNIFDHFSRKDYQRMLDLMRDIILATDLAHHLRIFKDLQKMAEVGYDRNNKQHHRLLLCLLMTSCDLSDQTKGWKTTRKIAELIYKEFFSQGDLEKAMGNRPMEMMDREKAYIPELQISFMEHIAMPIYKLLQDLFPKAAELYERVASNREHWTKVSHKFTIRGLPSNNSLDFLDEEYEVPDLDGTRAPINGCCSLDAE
row,Ki [nM],Compound
1,3.7,"Cc1nc2c(c(Br)nn2C(C)c2ccc(C(F)(F)F)cc2)c(=O)[nH]1 (single isomer, unassigned) [Example 325]"
2,2.2,"CC(c1ccc(C(F)(F)F)cc1)n1nc(-c2nnco2)c2c(=O)[nH]c(CC3CC3)nc21 (single isomer, unassigned) [Example 340, (R)- or (S)-6-(Cyclopropylmethyl)-3-(1,3,4-oxadiazol-2-yl)-1-(1-(4-(trifluoromethyl)phenyl)ethyl)-1,5-dihydro-4H-pyrazolo[3,4-d] pyrimidin-4-one]"
3,191,"CC(c1ccc(C(F)(F)F)cc1)n1nc(-c2nnco2)c2c(=O)[nH]c(CC3CC3)nc21 (single isomer, unassigned) [Example 341, (S)- or (R)-6-(Cyclopropylmethyl)-3-(1,3,4-oxadiazol-2-yl)-1-(1-(4-(trifluoromethyl)phenyl)ethyl)-1,5-dihydro-4H-pyrazolo[3,4-d] pyrimidin-4-one]"
4,2.5,"CC(c1ccc(C(F)(F)F)cc1)n1nc(-c2nnco2)c2c(=O)[nH]c(CC3CCCC3)nc21 (single isomer, unassigned) [Example 342, (R) or (S)-6-(Cyclopentylmethyl)-3-(1,3,4-oxadiazol-2-yl)-1-(1-(4-(trifluoromethyl)phenyl)ethyl)-1,5-dihydro-4H-pyrazolo[3,4-d] pyrimidin-4-one]"
5,299,"CC(c1ccc(C(F)(F)F)cc1)n1nc(-c2nnco2)c2c(=O)[nH]c(CC3CCCC3)nc21 (single isomer, unassigned) [Example 343, (S) or (R)-6-(Cyclopentylmethyl)-3-(1,3,4-oxadiazol-2-yl)-1-(1-(4-(trifluoromethyl)phenyl)ethyl)-1,5-dihydro-4H-pyrazolo[3,4-d] pyrimidin-4-one]"
6,34,"CC(c1ccc(C(F)(F)F)cc1)n1nc(C#N)c2c(=O)[nH]c(CC3CC3)nc21 (single isomer, unassigned) [Example 346]"
7,1030,"CC(c1ccc(C(F)(F)F)cc1)n1nc(C#N)c2c(=O)[nH]c(CC3CC3)nc21 (single isomer, unassigned) [Example 347]"
8,4.7,"COc1cccc(Cc2nc3c(c(C#N)nn3C(C)c3ccc(C(F)(F)F)cc3)c(=O)[nH]2)c1 (single isomer, unassigned) [Example 348]"
9,373,"COc1cccc(Cc2nc3c(c(C#N)nn3C(C)c3ccc(C(F)(F)F)cc3)c(=O)[nH]2)c1 (single isomer, unassigned) [Example 349]"
10,62,"CC(c1ccc(C(F)(F)F)cc1)n1nc(C#N)c2c(=O)[nH]c(CC3CCCC3)nc21 (single isomer, unassigned) [Example 350]"
11,1010,"CC(c1ccc(C(F)(F)F)cc1)n1nc(C#N)c2c(=O)[nH]c(CC3CCCC3)nc21 (single isomer, unassigned) [Example 351]"
12,42,"Cc1nc2c(c(N)nn2C(C)c2ccc(C(F)(F)F)cc2)c(=O)[nH]1 (stereo not shown) [Example 258, 3-Amino-6-methyl-1-(1-(4-(trifluoromethyl)phenyl)ethyl)-H-pyrazolo[3,4-d]pyrimidin-4(5H)-one]"
13,388,"Cc1nc2c(c(CC3COC3)nn2C(C)c2ccc(C(F)(F)F)cc2)c(=O)[nH]1 (stereo not shown) [Example 289, 6-Methyl-3-(oxetan-3-ylmethyl)-1-(1-(4-(trifluoromethyl)phenyl)ethyl)-1H-pyrazolo[3,4-d]pyrimidin-4(5H)-one]"
14,42,"CC(=O)c1nn([C@@H](C)c2ccc(C(F)(F)F)cc2)c2nc(C)[nH]c(=O)c12 [Example 322, (S)-3-Acetyl-6-methyl-1-(1-(4-(trifluoromethyl)phenyl)ethyl)-1,5-dihydro-4H-pyrazolo[3,4-d]pyrimidin-4-one]"
15,2080,"Cc1nc2c(c(O)nn2[C@@H](C)c2ccc(C(F)(F)F)cc2)c(=O)[nH]1 [Example 329, (S)-3-Hydroxy-6-methyl-1-(1-(4-(trifluoromethyl)phenyl)ethyl)-1,5-dihydro-4H-pyrazolo[3,4-d]pyrimidin-4-one]"

# Second part, the compound before the results:
row,Compound,Ki [nM]
1,"COc1cccc(Cc2nc3c(c(-c4nnco4)nn3C(C)c3ccc(C(F)(F)F)cc3)c(=O)[nH]2)c1 (single isomer, unassigned) [Example 344, (R)- or (S)-6-(3-Methoxybenzyl)-3-(1,3,4-oxadiazol-2-yl)-1-(1-(4-(trifluoromethyl)phenyl)ethyl)-1,5-dihydro-4H-pyrazolo[3,4-d] pyrimidin-4-one]",26
2,"COc1cccc(Cc2nc3c(c(-c4nnco4)nn3C(C)c3ccc(C(F)(F)F)cc3)c(=O)[nH]2)c1 (single isomer, unassigned) [Example 345, (S)- or (R)-6-(3-Methoxybenzyl)-3-(1,3,4-oxadiazol-2-yl)-1-(1-(4-(trifluoromethyl)phenyl)ethyl)-1,5-dihydro-4H-pyrazolo[3,4-d] pyrimidin-4-one]",0.15
3,"Cc1nc2c(c(CO)nn2C2(c3ccc(C(F)(F)F)cc3)COC2)c(=O)[nH]1 [Example 79, 3-(Hydroxymethyl)-6-methyl-1-(3-(4-(trifluoromethyl)phenyl)oxetan-3-yl)-1H-pyrazolo[3,4-d]pyrimidin-4(5H)-one]",23
4,"Cc1nc2c(c(CO)nn2C2(c3ccc(C(F)(F)F)cc3)CC2)c(=O)[nH]1 [Example 142, 3-(Hydroxymethyl)-6-methyl-1-(1-(4-(trifluoromethyl)phenyl)cyclopropyl)-1H-pyrazolo[3,4-d]pyrimidin-4(5H)-one]",8.2
5,"Cc1nc2c(c(C(F)F)nn2C2(c3ccc(C(F)(F)F)cc3)COC2)c(=O)[nH]1 [Example 163, 3-(Difluoromethyl)-6-methyl-1-(3-(4-(trifluoromethyl)phenyl)oxetan-3-yl)-1H-pyrazolo[3,4-d]pyrimidin-4(5H)-one]",9.5
6,"Cc1nc2c(c(C(F)F)nn2C(C)c2ccc(C3(C(F)(F)F)CC3)cc2)c(=O)[nH]1 (stereo not shown) [Example 164, 3-(Difluoromethyl)-6-methyl-1-(1-(4-(1-(trifluoromethyl)cyclopropyl)phenyl)ethyl)-1H-pyrazolo[3,4-d]pyrimidin-4(5H)-one]",8.2
7,"Cc1nc2c(c(C(F)F)nn2C(C)c2ccc(C(F)(F)C(F)(F)F)cc2)c(=O)[nH]1 (stereo not shown) [Example 165, 3-(Difluoromethyl)-6-methyl-1-(1-(4-(perfluoroethyl)phenyl)ethyl)-1H-pyrazolo[3,4-d]pyrimidin-4(5H)-one]",6.3
8,"Cc1nc2c(c(CC(C)(C)O)nn2C(C)c2ccc(C(F)(F)F)cc2)c(=O)[nH]1 (stereo not shown) [Example 247, 3-(2-Hydroxy-2-methylpropyl)-6-methyl-1-(1-(4-(trifluoromethyl)phenyl)ethyl)-1H-pyrazolo[3,4-d]pyrimidin-4(5H)-one]",~567
9,"Cc1nc2c(c(NS(C)(=O)=O)nn2C(C)c2ccc(C(F)(F)F)cc2)c(=O)[nH]1 (stereo not shown) [Example 261, N-(6-Methyl-4-oxo-1-(1 (4-(trifluoromethyl)phenyl)ethyl)-4,5-dihydro-1H-pyrazolo[3,4-d]pyrimidin-3-yl)methanesulfonamide]",~1800
10,"Cc1nc2c(c(C(=O)O)nn2[C@@H](C)c2ccc(C(F)(F)F)cc2)c(=O)[nH]1 [Example 323, (S)-6-Methyl-4-oxo-1-(1-(4-(trifluoromethyl)phenyl)ethyl)-4,5-dihydro-1H-pyrazolo[3,4-d]pyrimidine-3-carboxylic acid]",798
